Values after ≈ are worked out from the molar mass of the structure shown. Read-outs that look alike come from different tables or passages of the source.
Columns and labels:
Unfractionated heparin = test: aPTT clotting assay, UFH 0.4 U/mL in plasma (Example 10); type: biochemical; conditions: unfractionated heparin 0.4 U/mL in plasma; aPTT clotting
Experimental: aPTT clotting Assay: Unfractionated heparin was mixed with plasma at a final concentration of 0.4 U/mL (or concentration which increases aPTT time to between 120 and 300 seconds). […] The ACL Elite Hemostasis analyzer (Beckman Coulter™) was used to add aPTT reagent (HemosIL SynthASil) to supplemented plasma. Clotting was initiated by addition of CaCl2 and time to clot was recorded.

[1] = tested on: isolated human erythrocytes; test: cells; type: cell-based; conditions: Homo sapiens, Erythrocyte, 1 h, read-out: Hemolysis EC50
Method in brief: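 Pooled human red cells, washed and diluted from a 0.22% stock suspension in TBS pH 7.4, were shaken with two-fold dilutions (1000 to 0.48 µg/ml) for 1 h at 37 °C. Released hemoglobin in the supernatant was read at OD405. EC50 came from a four-parameter logistic fit, with melittin as positive control.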

UFH = test: FXa amidolytic assay (Example 10), UFH; conditions: read-out: Heparin FXa uM EC50; UFH 0.03 units/mL; human antithrombin, bovine Factor Xa
Experimental: (§2) Two μl of test agent are added (range between 0.01 and 23 ug/ml) and incubated for 5 minutes at 23° C. Bovine Factor Xa was added to a final concentration of 0.636 nkat/mL and incubated for a further 10 minutes at 23° C.

tinzaparin = test: FXa amidolytic assay (Example 10), tinzaparin; conditions: read-out: Tinzap FXa EC50; tinzaparin 0.1 ug/ml; human antithrombin, bovine Factor Xa
Experimental: as §2

fondaparinux = test: FXa amidolytic assay (Example 10), fondaparinux; conditions: for EC50: read-out: Fondap FXa EC50, fondaparinux 0.02 μg/mL, human antithrombin, bovine Factor Xa
Experimental: as §2

[2] = Cytotoxicity colorimetric assay, HepG2; type: cell-based, human; set-up: Cytotoxicity HepG2, percent printed in parentheses after the concentration: concentration or dose not given beside the values; conditions: human, HepG2 cells, one hour in serum-free media
Experimental: (§1) This assay measures the bioreduction of a novel tetrazolium compound to a soluble formazan product by viable cells. HepG2 cells were seeded in 96 well plates at 3×10^4 cells/well in MEM medium with 10% fetal bovine serum (FBS) 24 hours prior to use. NIH/3T3 cells were seeded in 96 well plates at 2×10^4 cells/well in DMEM medium with 10% bovine calf serum (BCS) 24 hours prior to use. Cell monolayers were rinsed in serum-free media and incubated for one hour with test agent in serum-free media. After incubation, the media was replaced with serum supplemented media and live cells were measured using the Cell Titer 96 Aqueous […] Assay kit (Promega, Madison, Wis.). EC50 values were determined using a four parameter logistic equation: Y=Bottom+(Top-Bottom)/(1+10̂((LogEC50-X)*HillSlope)).

HepG2 cells = test: Cytotoxicity colorimetric assay, HepG2; type: cell-based, human; set-up: Cytotoxicity HepG2, percent printed in parentheses after the concentration: concentration or dose not given beside the values; conditions: at the concentration given
Experimental: as §1

enoxaparin [3] = test: FXa amidolytic assay (Example 10), enoxaparin; conditions: read-out: Enox FXa EC50; enoxaparin 0.1 ug/ml; human antithrombin, bovine Factor Xa
Experimental: as §2

enoxaparin [4] = test: In vivo neutralization of enoxaparin in the rat; conditions: compared with protamine
Experimental: Compounds were tested for their ability to neutralize enoxaparin coagulation inhibition in rats. Male Sprague-Dawley rats were used in this study (Charles River Laboratories). They were ten-weeks-old at the start of the study and their weights ranged from 319-362 g. Enoxaparin (2 mg/kg) was administered by IV injection to groups of six rats. After 3 min, saline, protamine or a test compound was administered by IV injection. Blood was collected before dosing with enoxaparin, and at 1, 3, 10, 30 and 60 min after dosing with the standard and test compounds. All treatments were dosed in a volume of 1 mL/kg. Blood was collected via the orbital sinus from three rats per group. At each time point, 1 mL of blood was collected from each animal into a single tube. The blood was analyzed using an AMEX Destiny Plus Coagulation Analyzer for activated partial thromboplastin time (APTT) and anti-Factor Xa (low-molecular weight).

[5] = Cytotoxicity colorimetric assay, NIH/3T3; type: cell-based, mouse; conditions: mouse, NIH/3T3 cells, one hour in serum-free media
Experimental: as §1

## COc1ccc(NC(=O)[C@@H](CCCNC(=N)N)NC(=O)c2cc(NC(=O)[C@@H](CCCNC(=N)N)NC(=O)c3cc(NC(=O)[C@@H](CCCNC(=N)N)NC(=O)c4cc(NC(C)=O)ccc4OC)ccc3OC)ccc2OC)cc1C(=O)N[C@H](Cc1ccc(O)cc1)C(=O)O [Compound 297]
Unfractionated heparin
  EC50: 7120 nM
[1]; human RBC, 1 hour at 37° C.
  EC50: > 1000 µg/mL
UFH
  EC50: 0.215 µM
tinzaparin
  EC50: 318 nM
fondaparinux
  EC50: 225 nM
[2]
  EC50 at 1 h: 300 µg/mL (≈ 233 µM)
HepG2 cells
  Cytotoxicity HepG2, percent printed in parentheses after the concentration: 60%
Enoxaparin [3]
  EC50: 293 nM

## COc1ccc(NC(=O)[C@H](CCCCN)NC(=O)c2cc(NC(=O)[C@H](CCCCN)NC(=O)c3cc(NC(=O)[C@H](CCCCN)NC(=O)c4cc(NC(=O)[C@@H](N)CCCCN)ccc4OC)ccc3OC)ccc2OCC(=O)O)cc1C(=O)N[C@@H](Cc1c[nH]c2ccccc12)C(N)=O [Compound 348]
Unfractionated heparin
  EC50: 2400 nM
[1]; human RBC, 1 hour at 37° C.
  EC50: > 1000 µg/mL
Enoxaparin [4]
  in vivo efficacy versus LMWH by anti-factor Xa activity (summary): superior to protamine
UFH
  EC50: 0.153 µM
[5]
  EC50 at 1 h: > 1000 µg/mL
tinzaparin
  EC50: 67 nM
fondaparinux
  Potent LMWH-antagonists with superior anti-fondaparinux activity (summary): superior anti-fondaparinux activity
  EC50: 263 nM
[2]
  EC50 at 1 h: > 1000 µg/mL
Enoxaparin [3]
  EC50: 120 nM

## COc1ccc(NC(=O)[C@H](CCCCN)NC(=O)c2cc(NC(=O)[C@H](CCCCN)NC(=O)c3cc(NC(=O)[C@H](CCCCN)NC(=O)c4cc(NC(=O)[C@@H](N)Cc5c[nH]c6ccccc56)ccc4OC)ccc3OC)ccc2OC)cc1C(N)=O [Compound 246]
Unfractionated heparin
  EC50: 2370 nM
[1]; human RBC, 1 hour at 37° C.
  EC50: > 1000 µg/mL
UFH
  EC50: 0.11 µM
tinzaparin
  EC50: 368 nM
fondaparinux
  EC50: 2540 nM
[2]
  EC50 at 1 h: 60 µg/mL (≈ 50.7 µM)
HepG2 cells
  Cytotoxicity HepG2, percent printed in parentheses after the concentration: 80%
Enoxaparin [3]
  EC50: 514 nM

## COc1ccc(NC(=O)[C@H](CCCCN)NC(=O)c2cc(NC(=O)[C@H](CCCCN)NC(=O)c3cc(NC(=O)[C@H](CCCCN)NC(=O)c4cc(NC(=O)[C@@H](N)CCCCN)ccc4OC)ccc3OC)ccc2OC)cc1C(=O)N[C@@H](Cc1ccccc1)C(=O)O [Compound 263]
Unfractionated heparin
  EC50: 1250 nM
[1]; human RBC, 1 hour at 37° C.
  EC50: > 1000 µg/mL
UFH
  EC50: 0.179 µM
tinzaparin
  EC50: 352 nM
fondaparinux
  EC50: 1600 nM
[2]
  EC50 at 1 h: 255 µg/mL (≈ 200 µM)
HepG2 cells
  Cytotoxicity HepG2, percent printed in parentheses after the concentration: 60%
Enoxaparin [3]
  EC50: 376 nM

## COc1ccc(NC(=O)[C@@H](CCCNC(=N)N)NC(=O)c2cc(NC(=O)[C@@H](CCCNC(=N)N)NC(=O)c3cc(NC(=O)[C@@H](CCCNC(=N)N)NC(=O)c4cc(NC(C)=O)ccc4OC)ccc3OC)ccc2OC)cc1C(=O)N[C@H](Cc1c[nH]c2ccccc12)C(=O)O [Compound 304]
Unfractionated heparin
  EC50: > 10000 nM
[1]; human RBC, 1 hour at 37° C.
  EC50: ~500 µg/mL (≈ 381 µM)
UFH
  EC50: 0.242 µM
tinzaparin
  EC50: 257 nM
fondaparinux
  EC50: 209 nM
HepG2 cells
  Cytotoxicity HepG2, percent printed in parentheses after the concentration: 50%
Enoxaparin [3]
  EC50: 256 nM

## COc1ccc(NC(=O)[C@@H](CCCNC(=N)N)NC(=O)c2cc(NC(=O)[C@@H](CCCNC(=N)N)NC(=O)c3cc(NC(=O)[C@@H](CCCNC(=N)N)NC(=O)c4cc(NC(=O)[C@H](N)CCCNC(=N)N)ccc4OC)ccc3OC)ccc2OCC(=O)O)cc1C(N)=O [Compound 281]
Unfractionated heparin
  EC50: 1810 nM
[1]; human RBC, 1 hour at 37° C.
  EC50: > 1000 µg/mL
UFH
  EC50: 0.108 µM
tinzaparin
  EC50: 111 nM
fondaparinux
  EC50: 441 nM
[2]
  EC50 at 1 h: 1000 µg/mL (≈ 780 µM)
HepG2 cells
  Cytotoxicity HepG2, percent printed in parentheses after the concentration: 50%
Enoxaparin [3]
  EC50: 129 nM

## COc1ccc(NC(=O)[C@H](CCCCN)NC(=O)c2cc(NC(=O)[C@H](CCCCN)NC(=O)c3cc(NC(=O)[C@H](CCCCN)NC(=O)c4cc(NC(=O)[C@@H](N)CCCCN)ccc4OC)ccc3OC)ccc2OC)cc1C(=O)Nc1cccc(C(=O)O)c1 [Compound 275]
Unfractionated heparin
  EC50: 1720 nM
tinzaparin
  EC50: 113 nM
fondaparinux
  EC50: 579 nM
[2]
  EC50 at 1 h: 1000 µg/mL (≈ 802 µM)
HepG2 cells
  Cytotoxicity HepG2, percent printed in parentheses after the concentration: 50%
Enoxaparin [3]
  EC50: 134 nM

## COc1ccc(NC(=O)[C@H](CCCCN)NC(=O)c2cc(NC(=O)[C@H](CCCCN)NC(=O)c3cc(NC(=O)[C@H](CCCCN)NC(=O)c4cc(NC(=O)[C@H](CCCCN)NC(=O)c5c[nH]c6ccccc56)ccc4OC)ccc3OC)ccc2OC)cc1C(N)=O [Compound 349]
Unfractionated heparin
  EC50: 2020 nM
[1]; human RBC, 1 hour at 37° C.
  EC50: > 1000 µg/mL
UFH
  EC50: 0.213 µM
[5]
  EC50 at 1 h: 108 µg/mL (≈ 85.1 µM)
tinzaparin
  EC50: 90 nM
fondaparinux
  EC50: 129 nM
[2]
  EC50 at 1 h: 236 µg/mL (≈ 186 µM)
Enoxaparin [3]
  EC50: 108 nM

## COc1cc(OC)c(C(=O)N[C@H]2CC[C@@H](NC(=O)c3cc(C(=O)NCCN(C)C)c(OCCCCCN)cc3OCCCCCN)CC2)cc1C(=O)N[C@H]1CC[C@@H](NC(=O)c2cc(C(=O)NCCN(C)C)c(OCCCCCN)cc2OCCCCCN)CC1 [Compound 363]
Unfractionated heparin
  EC50: 1030 nM
[1]; human RBC, 1 hour at 37° C.
  EC50: > 1000 µg/mL
Enoxaparin [4]
  in vivo efficacy versus LMWH by anti-factor Xa activity (summary): superior to protamine
UFH
  EC50: 0.134 µM
[5]
  EC50 at 1 h: 500 µg/mL (≈ 397 µM)
tinzaparin
  EC50: 113 nM
fondaparinux
  Potent LMWH-antagonists with superior anti-fondaparinux activity (summary): superior anti-fondaparinux activity
  EC50: 1060 nM
[2]
  EC50 at 1 h: > 1000 µg/mL
Enoxaparin [3]
  EC50: 67 nM

## COc1ccc(NC(=O)[C@H](CCCCN)NC(=O)c2cc(NC(=O)[C@H](CCCCN)NC(=O)c3cc(NC(=O)[C@H](CCCCN)NC(=O)c4cc(NC(=O)[C@H](CCCCN)NC(=O)c5c[nH]c6ccccc56)ccc4OC)ccc3OC)ccc2OCC(=O)O)cc1C(N)=O [Compound 350]
Unfractionated heparin
  EC50: 627 nM
[1]; human RBC, 1 hour at 37° C.
  EC50: > 1000 µg/mL
UFH
  EC50: 0.291 µM
[5]
  EC50 at 1 h: 150 µg/mL (≈ 114 µM)
tinzaparin
  EC50: 128 nM
fondaparinux
  EC50: 146 nM
[2]
  EC50 at 1 h: 425 µg/mL (≈ 324 µM)
Enoxaparin [3]
  EC50: 147 nM

## COc1ccc(NC(=O)[C@H](CCCCN)NC(=O)c2cc(NC(=O)[C@H](CCCCN)NC(=O)c3cc(NC(=O)[C@H](CCCCN)NC(=O)c4cc(NC(=O)[C@H](CCCCN)NC(=O)c5ccccc5)ccc4OC)ccc3OC)ccc2OC)cc1C(N)=O [Compound 353]
Unfractionated heparin
  EC50: 1630 nM
[1]
  EC50: > 1000 µg/mL
UFH
  EC50: 0.198 µM
[5]
  EC50 at 1 h: ~100 µg/mL (≈ 81.3 µM)
tinzaparin
  EC50: 104 nM
fondaparinux
  EC50: 407 nM
[2]
  EC50 at 1 h: > 1000 µg/mL
Enoxaparin [3]
  EC50: 123 nM

## COc1cc(OC)c(C(=O)N[C@H]2CC[C@@H](NC(=O)c3ccc(OCCCCCN)cc3OCCCCCN)CC2)cc1C(=O)N[C@H]1CC[C@@H](NC(=O)c2ccc(OCCCCCN)cc2OCCCCCN)CC1 [Compound 369]
Unfractionated heparin
  EC50: 350 nM
[1]; human RBC, 1 hour at 37° C.
  EC50: > 1000 µg/mL
Enoxaparin [4]
  in vivo efficacy versus LMWH by anti-factor Xa activity (summary): superior to protamine
UFH
  EC50: 0.411 µM
[5]
  EC50 at 1 h: 100 µg/mL (≈ 97 µM)
tinzaparin
  EC50: 176 nM
fondaparinux
  EC50: 3860 nM
[2]
  EC50 at 1 h: 280 µg/mL (≈ 271 µM)
Enoxaparin [3]
  EC50: 143 nM
